Assay results published in the supplement of paper PMC10307832.

Experiments:
Experiment in all cases: relative viability (nuclei count vs DMSO), 5 days (fraction); higher = more cells survive
[1] = compound: COc1cc2nc(N3CCCN(C)CC3)nc(NC3CCN(Cc4ccccc4)CC3)c2cc1OC + Cc1cc(Nc2cc(N3CCN(C)CC3)nc(Sc3ccc(NC(=O)C4CC4)cc3)n2)n[nH]1 [Tozasertib] (partner 0.1 µM)
In short: (§1)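 Values are medians from duplicate plates. Each reflects relative viability, defined as the nuclei count of treated wells over that of vehicle wells. Lung cancer cell lines in 1536-well plates were pin-tool dosed one day after seeding with one drug alone or with a fixed anchor-drug dose plus five library-drug doses (not always all listed) in √10 steps, then fixed, stained and imaged at 4× after 5 days.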

AZD6482 + Navitoclax = compound: Cc1cc([C@@H](C)Nc2ccccc2C(=O)O)c2nc(N3CCOCC3)cc(=O)n2c1 [AZD6482] + CC1(C)CCC(c2ccc(Cl)cc2)=C(CN2CCN(c3ccc(C(=O)NS(=O)(=O)c4ccc(N[C@H](CCN5CCOCC5)CSc5ccccc5)c(S(=O)(=O)C(F)(F)F)c4)cc3)CC2)C1 [Navitoclax] (partner 0.5 µM)
In short: as §1

AZD6482 + Pemetrexed = compound: Cc1cc([C@@H](C)Nc2ccccc2C(=O)O)c2nc(N3CCOCC3)cc(=O)n2c1 [AZD6482] + Nc1nc2[nH]cc(CCc3ccc(C(=O)N[C@@H](CCC(=O)O)C(=O)O)cc3)c2c(=O)[nH]1 [Pemetrexed] (partner 0.2 µM)
In short: as §1

AZD6482 + Crizotinib = compound: Cc1cc([C@@H](C)Nc2ccccc2C(=O)O)c2nc(N3CCOCC3)cc(=O)n2c1 [AZD6482] + C[C@@H](Oc1cc(-c2cnn(C3CCNCC3)c2)cnc1N)c1c(Cl)ccc(F)c1Cl [Crizotinib] (partner 1 µM)
In short: as §1

Cell Line | relative viability ([1]; first compound 0.2 µM) | relative viability ([1]; first compound 0.6325 µM) | relative viability ([1]; first compound 2 µM) | relative viability ([1]; first compound 6.325 µM) | relative viability (AZD6482 + Navitoclax; first compound 0.08 µM) | relative viability (AZD6482 + Navitoclax; first compound 0.253 µM) | relative viability (AZD6482 + Navitoclax; first compound 0.8 µM) | relative viability (AZD6482 + Navitoclax; first compound 8 µM) | relative viability (AZD6482 + Pemetrexed; first compound 0.08 µM) | relative viability (AZD6482 + Pemetrexed; first compound 0.253 µM) | relative viability (AZD6482 + Pemetrexed; first compound 0.8 µM) | relative viability (AZD6482 + Pemetrexed; first compound 2.53 µM) | relative viability (AZD6482 + Pemetrexed; first compound 8 µM) | relative viability (AZD6482 + Crizotinib; first compound 0.08 µM) | relative viability (AZD6482 + Crizotinib; first compound 0.253 µM) | relative viability (AZD6482 + Crizotinib; first compound 0.8 µM) | relative viability (AZD6482 + Crizotinib; first compound 8 µM) | relative viability (AZD6482 + Navitoclax; first compound 2.53 µM) | relative viability (AZD6482 + Crizotinib; first compound 2.53 µM)
NCI-H520 | 0.405 | 0.405 | 0.437 | 0.507 | 0.839 | 0.785 | 0.703 | 0.344 | 0.501 | 0.409 | 0.394 | 0.144 | 0.222 | 0.623 | 0.615 | 0.523 | 0.4 |  | 
NCI-H1755 | 0.668 | 0.464 | 0.592 | 0.557 | 0.833 | 0.737 | 0.682 | 0.498 | 0.416 | 0.435 | 0.436 | 0.383 | 0.36 | 0.717 | 0.769 | 0.704 | 0.487 | 0.43 | 0.545
NCI-H2023 | 0.368 | 0.301 | 0.46 | 0.109 | 0.891 | 0.999 | 0.803 | 0.621 | 0.254 | 0.226 | 0.204 | 0.175 | 0.176 | 0.535 | 0.615 | 0.509 | 0.494 | 0.615 | 0.411
NCI-H2009 | 0.761 | 0.727 | 0.855 | 0.656 | 1.11 | 1.14 | 1.23 | 0.96 | 0.972 | 1.12 | 1.11 | 0.724 | 1.01 | 0.884 | 1.03 | 1.05 | 0.813 | 0.757 | 0.693
